Results reported in PubChem BioAssay AID248 (DTP/NCI, 2004).
Where “and” joins values, the source holds several entries; their conditions need not be identical. Equal values may be shown once. Toxic doses and inconclusive results are not listed.

Tested on: L1210 leukemia ip in BDF1 mice, survival T/C
Assay: NCI In Vivo Anticancer Drug Screen. Data for tumor model L1210 Leukemia (intraperitoneal) in B6D2F1 (BDF1) mice
Conditions: endpoint: mean survival time, higher = longer survival
Summary of the method: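 Ratio derived from survival: compound-dosed mice over vehicle-dosed mice, all bearing a transplantable tumor.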

[1] = dose: 100.0 mg/kg/injection, schedule: Q01DX009 (ip), vehicle: saline with Tween-80
[2] = dose: 200.0 mg/kg/injection, schedule: Q01DX009 (ip), vehicle: saline with Tween-80
[3] = dose: 400.0 mg/kg/injection, schedule: Q01DX009 (ip), vehicle: saline with Tween-80
[4] = dose: 75.0 mg/kg/injection, schedule: Q01DX001 (ip), vehicle: other
[5] = dose: 100.0 mg/kg/injection, schedule: Q01DX009 (ip), vehicle: other
[6] = dose: 100.0 mg/kg/injection, schedule: Q01DX001 (ip), vehicle: saline
[7] = dose: 100.0 mg/kg/injection, schedule: Q01DX001 (ip), vehicle: other
[8] = dose: 200.0 mg/kg/injection, schedule: Q01DX001 (ip), vehicle: other
[9] = dose: 400.0 mg/kg/injection, schedule: Q01DX001 (ip), vehicle: other
[10] = dose: 100.0 mg/kg/injection, schedule: Q01DX001 (ip), vehicle: saline with Tween-80
[11] = dose: 200.0 mg/kg/injection, schedule: Q01DX001 (ip), vehicle: saline with Tween-80
[12] = dose: 400.0 mg/kg/injection, schedule: Q01DX001 (ip), vehicle: saline with Tween-80
[13] = dose: 100.0 mg/kg/injection, schedule: Q04DX003 (ip), vehicle: saline with Tween-80
[14] = dose: 200.0 mg/kg/injection, schedule: Q04DX003 (ip), vehicle: saline with Tween-80

## O=C(COc1ccc(Cl)c(Cl)c1)Nc1ccc[n+](CC(=O)Nc2ccc(S(=O)(=O)F)cc2)c1
[1]
  T/C: 87 % of control
[2]
  T/C: 87 % of control
[3]
  T/C: 89 % of control

## Cn1nc(NN)c2cccnc21
[4]
  T/C: 103 % of control
dose: 150.0 mg/kg/injection, schedule: Q01DX001 (ip), vehicle: other
  T/C: 104 % of control

## NNC(=S)N/N=C/c1ccccc1
dose: 100.0 mg/kg/injection, schedule: Q01DX001 (ip), vehicle: Klucel (hydroxypropylcellulose) (HPC)
  T/C: 93 % of control
dose: 200.0 mg/kg/injection, schedule: Q01DX001 (ip), vehicle: Klucel (hydroxypropylcellulose) (HPC)
  T/C: 93 % of control
dose: 400.0 mg/kg/injection, schedule: Q01DX001 (ip), vehicle: Klucel (hydroxypropylcellulose) (HPC)
  T/C: 100 % of control

## CCOc1ccc([N+](=O)[O-])cc1CN(CC)CC
dose: 5.0 mg/kg/injection, schedule: Q01DX009 (ip), vehicle: saline
  T/C: 97 % of control
dose: 9.5 mg/kg/injection, schedule: Q01DX001 (ip), vehicle: saline
  T/C: 109 % of control
dose: 10.0 mg/kg/injection, schedule: Q01DX009 (ip), vehicle: saline
  T/C: 95 % of control
dose: 10.0 mg/kg/injection, schedule: Q04DX003 (ip), vehicle: saline
  T/C: 97 % of control
dose: 19.0 mg/kg/injection, schedule: Q01DX001 (ip), vehicle: saline
  T/C: 106 % of control
dose: 20.0 mg/kg/injection, schedule: Q01DX009 (ip), vehicle: saline
  T/C: 89 % of control
dose: 20.0 mg/kg/injection, schedule: Q04DX003 (ip), vehicle: saline
  T/C: 102 % of control
dose: 38.0 mg/kg/injection, schedule: Q01DX001 (ip), vehicle: saline
  T/C: 98 % of control

## N#C/C(=C\c1ccccc1Cl)c1cccc(Cl)c1
dose: 25.0 mg/kg/injection, schedule: Q01DX009 (ip), vehicle: other
  T/C: 107 % of control
dose: 50.0 mg/kg/injection, schedule: Q01DX009 (ip), vehicle: other
  T/C: 96 % of control
[5]
  T/C: 93 % of control and 90 % of control

## N#[N+]c1ccc(Br)cc1-c1nc(N)nc(N)n1
dose: 12.5 mg/kg/injection, schedule: Q01DX009 (ip), vehicle: saline
  T/C: 92 % of control
dose: 25.0 mg/kg/injection, schedule: Q01DX009 (ip), vehicle: saline
  T/C: 101 % of control
dose: 25.0 mg/kg/injection, schedule: Q04DX003 (ip), vehicle: saline
  T/C: 113 % of control
dose: 50.0 mg/kg/injection, schedule: Q01DX009 (ip), vehicle: saline
  T/C: 100 % of control
dose: 50.0 mg/kg/injection, schedule: Q04DX003 (ip), vehicle: saline
  T/C: 98 % of control
[6]
  T/C: 104 % of control

## CC(=O)Nc1cc(C/C(N)=N/O)cc(NC(C)=O)c1
[1]
  T/C: 97 % of control
[2]
  T/C: 92 % of control
[3]
  T/C: 100 % of control

## Cc1[nH]c2ccccc2c1C1Cc2ccccc2N1 (stereo not drawn)
[7]
  T/C: 97 % of control and 103 % of control
[5]
  T/C: 101 % of control
[8]
  T/C: 100 % of control and 90 % of control
dose: 200.0 mg/kg/injection, schedule: Q01DX009 (ip), vehicle: other
  T/C: 101 % of control
[9]
  T/C: 94 % of control
dose: 400.0 mg/kg/injection, schedule: Q01DX009 (ip), vehicle: other
  T/C: 107 % of control

## Clc1ccc2nc(/C=C/c3ccccc3)ccc2c1
[7]
  T/C: 95 % of control
[8]
  T/C: 104 % of control
[9]
  T/C: 98 % of control

## CCCCCCCCCCCC(=O)NC(=O)N1CCOCC1
[10]
  T/C: 101 % of control
[1]
  T/C: 97 % of control
[11]
  T/C: 101 % of control
[2]
  T/C: 98 % of control
[12]
  T/C: 94 % of control
[3]
  T/C: 93 % of control

## CC(=O)/C(=C\N(C)C)C(=O)Nc1ccccn1
[10]
  T/C: 98 % of control
[11]
  T/C: 101 % of control
[12]
  T/C: 93 % of control

## CC12CC3CC(C)(C1)CC(SCCCCCN=C(N)CSSCC(N)=NCCCCCSC14CC5CC(C)(CC(C)(C5)C1)C4)(C3)C2
dose: 10.0 mg/kg/injection, schedule: Q04DX002 (ip), vehicle: Klucel (hydroxypropylcellulose) (HPC)
  T/C: 110 % of control
dose: 20.0 mg/kg/injection, schedule: Q04DX002 (ip), vehicle: Klucel (hydroxypropylcellulose) (HPC)
  T/C: 102 % of control
dose: 40.0 mg/kg/injection, schedule: Q04DX002 (ip), vehicle: Klucel (hydroxypropylcellulose) (HPC)
  T/C: 87 % of control

## CCC(=N\O)/C(C)=N/O
dose: 100.0 mg/kg/injection, schedule: Q04DX003 (ip), vehicle: Klucel (hydroxypropylcellulose) (HPC)
  T/C: 103 % of control
dose: 200.0 mg/kg/injection, schedule: Q04DX003 (ip), vehicle: Klucel (hydroxypropylcellulose) (HPC)
  T/C: 103 % of control
dose: 400.0 mg/kg/injection, schedule: Q04DX003 (ip), vehicle: Klucel (hydroxypropylcellulose) (HPC)
  T/C: 100 % of control

## CCNC(C)(C)C(SS(=O)(=O)O)c1ccc(Cl)s1 (stereo not drawn)
[1]
  T/C: 96 % of control
[13]
  T/C: 102 % of control
[2]
  T/C: 90 % of control
[14]
  T/C: 96 % of control
dose: 400.0 mg/kg/injection, schedule: Q04DX003 (ip), vehicle: saline with Tween-80
  T/C: 92 % of control

## CCCCCCCCCCCC[Si](Cl)(Cl)Cl
dose: 75.0 mg/kg/injection, schedule: Q01DX001 (ip), vehicle: saline
  T/C: 105 % of control

## COc1ccc(N=NN(C)C(=O)c2ccccc2)cc1
dose: 50.0 mg/kg/injection, schedule: Q01DX009 (ip), vehicle: Klucel (hydroxypropylcellulose) (HPC)
  T/C: 108 % of control
dose: 75.0 mg/kg/injection, schedule: Q01DX001 (ip), vehicle: Klucel (hydroxypropylcellulose) (HPC)
  T/C: 112 % of control
dose: 100.0 mg/kg/injection, schedule: Q01DX009 (ip), vehicle: Klucel (hydroxypropylcellulose) (HPC)
  T/C: 120 % of control
dose: 150.0 mg/kg/injection, schedule: Q01DX001 (ip), vehicle: Klucel (hydroxypropylcellulose) (HPC)
  T/C: 111 % of control
dose: 300.0 mg/kg/injection, schedule: Q01DX001 (ip), vehicle: Klucel (hydroxypropylcellulose) (HPC)
  T/C: 107 % of control

## CCCCCCC(=O)N1CCCC(C)C1 (stereo not drawn)
dose: 100.0 mg/kg/injection, schedule: Q04DX002 (ip), vehicle: Klucel (hydroxypropylcellulose) (HPC)
  T/C: 98 % of control
dose: 200.0 mg/kg/injection, schedule: Q04DX002 (ip), vehicle: Klucel (hydroxypropylcellulose) (HPC)
  T/C: 106 % of control

## O=C1NC2C(NC(=O)N2Cl)N1Cl (stereo not drawn)
dose: 12.5 mg/kg/injection, schedule: Q01DX009 (ip), vehicle: saline with Tween-80
  T/C: 97 % of control
dose: 25.0 mg/kg/injection, schedule: Q01DX009 (ip), vehicle: saline with Tween-80
  T/C: 100 % of control
dose: 25.0 mg/kg/injection, schedule: Q04DX003 (ip), vehicle: saline with Tween-80
  T/C: 94 % of control
dose: 40.0 mg/kg/injection, schedule: Q01DX Z (ip), vehicle: carboxymethylcellulose (CMC)
  T/C: 92 % of control
dose: 50.0 mg/kg/injection, schedule: Q01DX009 (ip), vehicle: saline with Tween-80
  T/C: 94 % of control
dose: 50.0 mg/kg/injection, schedule: Q04DX003 (ip), vehicle: saline with Tween-80
  T/C: 95 % of control
[1]
  T/C: 94 % of control
[13]
  T/C: 105 % of control

## O=C1C(=O)N(CNC(c2ccccc2)c2ccccc2)c2ccccc21
[14]
  T/C: 87 % of control
[3]
  T/C: 96 % of control

## CC(=O)NC(C(O)CC(=O)C(=O)O)C(O)C(O)C(O)CO (stereo not drawn) (tested in a mixture with another compound)
[6]
  T/C: 102 % of control
dose: 200.0 mg/kg/injection, schedule: Q01DX001 (ip), vehicle: saline
  T/C: 100 % of control
dose: 400.0 mg/kg/injection, schedule: Q01DX001 (ip), vehicle: saline
  T/C: 102 % of control

## CO[C@@H](C=O)O[C@@H](C=O)CO
dose: 35.0 mg/kg/injection, schedule: Q01DX009 (ip), vehicle: water
  T/C: 115 % of control
dose: 35.0 mg/kg/injection, schedule: Q01DX Z (ip), vehicle: water
  T/C: 115 % of control
dose: 70.0 mg/kg/injection, schedule: Q01DX009 (ip), vehicle: water
  T/C: 123 % of control
dose: 70.0 mg/kg/injection, schedule: Q01DX Z (ip), vehicle: water
  T/C: 122 % of control
dose: 280.0 mg/kg/injection, schedule: Q01DX009 (ip), vehicle: water
  T/C: 153 % of control
dose: 280.0 mg/kg/injection, schedule: Q01DX Z (ip), vehicle: water
  T/C: 160 % of control

## Nc1nc(N)c2c(no[n+]2[O-])n1
[4]
  T/C: 98 % of control

## CCCCC(Cl)(CCCC)C(C)Sc1ccc([N+](=O)[O-])cc1 (stereo not drawn)
dose: 100.0 mg/kg/injection, schedule: Q01DX001 (ip), vehicle: carboxymethylcellulose (CMC)
  T/C: 103 % of control
dose: 200.0 mg/kg/injection, schedule: Q01DX001 (ip), vehicle: carboxymethylcellulose (CMC)
  T/C: 94 % of control
dose: 400.0 mg/kg/injection, schedule: Q01DX001 (ip), vehicle: carboxymethylcellulose (CMC)
  T/C: 100 % of control
